One test addresses T1, MMP-8 (Homo sapiens, UniProt P22894).
T1 construct: purchased Calbiochem
The test can be described thus: MMP inhibition assay, fluorogenic substrate FS-6. It is filed as biochemical. The settings on record: MMP-8 1.5 nM, inhibitor incubated 4 h at 25° C., substrate Mca-Lys-Pro-Leu-Gly-Leu-Dap(Dnp)-Ala-Arg-NH2 2 μM. How it is done: (§1) As reported therein, the inhibitory activity of the compounds of the invention was evaluated on the known fluorogenic substrate (Mca-Lys-Pro-Leu-Gly-Leu-Dpa-Ala-Arg-NH2), shortly referred to as FS-6 (see, as a reference, U. Neumann, Analytical Biochem. 2004, 328, 166-173).
(§2) Recombinant human progelatinase A (pro-MMP-2) and B (pro-MMP-9) from transfected mouse myeloma cells, MMP-16 and MMP-14 catalytic domains were supplied by Prof. Gillian Murphy (Department of Oncology, University of Cambridge, UK). Pro-MMP-1, pro-MMP-8, pro-MMP-3 and pro-MMP-13 were purchased from Calbiochem, MMP-12 was furnished from RDSystems.
(§3) Pro-MMP-3 was activated with trypsin 5 μg/mL for 30 min at 37 C.° followed by soybean trypsin inhibitor (SBTI) 62 μg/mL.
(§4) For assay measurements, the inhibitor stock solutions (DMSO, 100 mM) were further diluted, at 7 different concentrations (0.01 nM-300 μM) for each MMP in the fluorimetric assay buffer (FAB: Tris 50 mM, pH=7.5, NaCl 150 mM, CaCl2 10 mM, Brij 35 0.05% and DMSO 1%). Activated enzyme (final concentration 2.9 nM for MMP-2, 2.7 nM for MMP-9, 1.5 nM for MMP-8, 0.3 nM for MMP-13, 5 nM for MMP-3, 1 nM for MMP-14cd, 15 nM for MMP-16cd and 2.0 nM for MMP-1, 1 nM for MMP12) and inhibitor solutions were incubated in the assay buffer for 4 h at 25° C. After the addition of 200 μM solution of the fluorogenic substrate Mca-Arg-Pro-Lys-Pro-Val-Glu-Nva-Trp-Arg-Lys(Dnp)-NH2 (Sigma) for MMP-3 and Mca-Lys-Pro-Leu-Gly-Leu-Dap(Dnp)-Ala-Arg-NH2 (Bachem) (Neumann, U.; Kubota, H.; Frei, K.; Ganu, V.; Leppert, D. Anal. Biochem. 2004, 328, 166) for all the other enzymes in DMSO (final concentration 2 μM), the hydrolysis was monitored every 15 sec. for 20 min. recording the increase in fluorescence (λex=325 nm, λem=395 nm) using a Molecular Device SpectraMax Gemini XS plate reader. The assays were performed in triplicate in a total volume of 200 μl per well in 96-well microtitre plates (Corning, black, NBS). Control wells lack inhibitor. The MMP inhibition activity was expressed in relative fluorescent units (RFU). Percent of inhibition was calculated from control reactions without the inhibitor. IC50 was determined using the formula: Vi/Vo=1/(1+[I]/IC50), where Vi is the initial velocity of substrate cleavage in the presence of the inhibitor at concentration [I] and Vo is the initial velocity in the absence of the inhibitor. Results were analyzed using SoftMax Pro software and GraFit software.

The target of a further test is T2, MMP-9 (Homo sapiens, UniProt P14780).
T2 construct: purchased supplied by Prof; Gillian Murphy (Department of Oncology, University of Cambridge, UK); host or cells: transfected mouse myeloma cells
The experiment in a line: MMP inhibition assay, fluorogenic substrate FS-6. It is filed as biochemical. To be noted: MMP-9 2.7 nM, inhibitor incubated 4 h at 25° C., substrate Mca-Lys-Pro-Leu-Gly-Leu-Dap(Dnp)-Ala-Arg-NH2 2 μM. How it is done:
as §1, §2, §3, §4

In the next test the target is T3, MMP-3 (Homo sapiens, UniProt P08254).
T3 construct: purchased Calbiochem
The test can be described thus: MMP inhibition assay, fluorogenic substrate. Type of test: biochemical. To be noted: MMP-3 5 nM, inhibitor incubated 4 h at 25° C., substrate Mca-Arg-Pro-Lys-Pro-Val-Glu-Nva-Trp-Arg-Lys(Dnp)-NH2. As to the method:
as §2, §3
as §4, with “The MMP inhibition activity was expressed in relative fluorescent units (RFU).” left out

In a further test the target is T4, MMP-16 catalytic domain (Homo sapiens, UniProt P51512).
T4 construct: MMP-16 and MMP-14 catalytic domains were supplied by Prof; Gillian Murphy; purchased supplied by Prof; Gillian Murphy (Department of Oncology, University of Cambridge, UK)
The experiment in a line: MMP inhibition assay, fluorogenic substrate FS-6. The settings on record: MMP-16cd 15 nM, inhibitor incubated 4 h at 25° C., substrate Mca-Lys-Pro-Leu-Gly-Leu-Dap(Dnp)-Ala-Arg-NH2 2 μM. It is filed as biochemical. As to the method:
as §1, §2, §4

For a further test, the target named is T5, MMP-12 (Homo sapiens, UniProt P39900).
T5 construct: purchased RDSystems
The experiment in a line: MMP inhibition assay, fluorogenic substrate FS-6. It is filed as biochemical. The settings on record: MMP12 1 nM, inhibitor incubated 4 h at 25° C., substrate Mca-Lys-Pro-Leu-Gly-Leu-Dap(Dnp)-Ala-Arg-NH2 2 μM. How it is done:
as §1, §2, §4

A further test deals with MMP-13 (Homo sapiens, UniProt P45452). The test can be described thus: MMP inhibition assay, fluorogenic substrate FS-6. Type of test: biochemical. The settings on record: MMP-13 0.3 nM, inhibitor incubated 4 h at 25° C., substrate Mca-Lys-Pro-Leu-Gly-Leu-Dap(Dnp)-Ala-Arg-NH2 2 μM. As to the method:
as §1, §2, §3, §4

For test [1], the target named is T6, MMP-2 (Homo sapiens, UniProt P08253).
T6 sequence (P08253 110-660): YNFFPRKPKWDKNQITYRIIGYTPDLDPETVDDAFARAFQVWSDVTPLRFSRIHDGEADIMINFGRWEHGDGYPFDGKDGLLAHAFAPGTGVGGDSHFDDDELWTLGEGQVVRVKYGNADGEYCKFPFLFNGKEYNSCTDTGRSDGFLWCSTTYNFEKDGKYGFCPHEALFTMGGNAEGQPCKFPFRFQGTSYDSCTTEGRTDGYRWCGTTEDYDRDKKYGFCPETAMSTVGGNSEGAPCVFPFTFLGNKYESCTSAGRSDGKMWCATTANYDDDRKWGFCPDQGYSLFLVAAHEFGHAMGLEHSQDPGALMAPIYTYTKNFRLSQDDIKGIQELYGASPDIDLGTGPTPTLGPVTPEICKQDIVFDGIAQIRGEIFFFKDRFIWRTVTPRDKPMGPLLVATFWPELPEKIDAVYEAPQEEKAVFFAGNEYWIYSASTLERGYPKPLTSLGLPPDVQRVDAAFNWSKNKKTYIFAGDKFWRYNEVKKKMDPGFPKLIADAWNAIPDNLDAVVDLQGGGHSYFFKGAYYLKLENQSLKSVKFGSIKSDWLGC
The experiment in a line: MMP inhibition assay, fluorogenic substrate FS-6. Type of test: biochemical. Further details: purchased supplied by Prof; Gillian Murphy (Department of Oncology, University of Cambridge, UK); host or cells: transfected mouse myeloma cells. The settings on record: activated pro-MMP-2 2.9 nM, inhibitor incubated 4 h at 25° C., substrate Mca-Lys-Pro-Leu-Gly-Leu-Dap(Dnp)-Ala-Arg-NH2 2 μM. How it is done: as §1, §2, §3, §4

For the next test, the target named is T7, MMP-14 catalytic domain (Homo sapiens, UniProt P50281).
T7 construct: MMP-16 and MMP-14 catalytic domains were supplied by Prof; Gillian Murphy; purchased supplied by Prof; Gillian Murphy (Department of Oncology, University of Cambridge, UK)
The test can be described thus: MMP inhibition assay, fluorogenic substrate FS-6. Type of test: biochemical. To be noted: MMP-14cd 1 nM, inhibitor incubated 4 h at 25° C., substrate Mca-Lys-Pro-Leu-Gly-Leu-Dap(Dnp)-Ala-Arg-NH2 2 μM. As to the method:
as §1, §2, §4

The next test addresses MMP-14 (Homo sapiens, UniProt P50281). To be noted: isolated enzyme, fluorogenic substrate FS-1, literature value; cited from earlier work.
Test [2] has as its target T6, MMP-2. The settings on record: isolated enzyme, fluorogenic substrate FS-1, literature value; cited from earlier work.

This passage reports IC50 results from patent US9480758B2, “Diagnostic agents selective against metalloproteases” (BRACCO IMAGING S.P.A., priority 2008, dated 2016).

The structures appear in SMILES notation. Where two headings read alike, the source gives them in different places.

As usually defined, the IC50 is the point on the concentration scale where inhibition reaches its midpoint.

T3 sequence (P08254 100-477): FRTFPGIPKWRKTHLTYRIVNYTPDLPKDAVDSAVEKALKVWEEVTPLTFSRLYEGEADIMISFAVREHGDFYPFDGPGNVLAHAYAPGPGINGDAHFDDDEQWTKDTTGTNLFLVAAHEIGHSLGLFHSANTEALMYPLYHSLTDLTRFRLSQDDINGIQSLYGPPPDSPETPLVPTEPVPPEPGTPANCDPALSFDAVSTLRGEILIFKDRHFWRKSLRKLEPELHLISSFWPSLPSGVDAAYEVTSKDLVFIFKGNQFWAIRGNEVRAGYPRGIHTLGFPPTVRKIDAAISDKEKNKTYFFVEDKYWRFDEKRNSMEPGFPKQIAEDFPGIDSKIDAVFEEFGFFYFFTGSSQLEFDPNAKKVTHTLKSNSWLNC
T4 sequence (P51512 120-292 limits assumed): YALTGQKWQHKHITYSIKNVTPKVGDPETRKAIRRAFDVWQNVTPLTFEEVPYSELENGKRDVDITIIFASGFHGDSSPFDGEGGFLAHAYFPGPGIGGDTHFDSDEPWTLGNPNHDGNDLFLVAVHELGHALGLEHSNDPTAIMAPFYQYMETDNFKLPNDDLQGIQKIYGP
T5 sequence (P39900 106-470): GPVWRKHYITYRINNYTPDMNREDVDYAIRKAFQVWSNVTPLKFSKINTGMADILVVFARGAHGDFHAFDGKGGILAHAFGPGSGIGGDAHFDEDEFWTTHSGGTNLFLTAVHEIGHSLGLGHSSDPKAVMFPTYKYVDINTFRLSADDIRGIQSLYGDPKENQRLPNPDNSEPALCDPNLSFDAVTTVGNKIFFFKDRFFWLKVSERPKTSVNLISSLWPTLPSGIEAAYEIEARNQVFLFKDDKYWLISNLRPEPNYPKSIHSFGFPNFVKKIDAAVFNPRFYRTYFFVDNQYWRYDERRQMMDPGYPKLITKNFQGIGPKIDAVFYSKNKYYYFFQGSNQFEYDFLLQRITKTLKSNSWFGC
T2 sequence (P14780 107-707 limits assumed): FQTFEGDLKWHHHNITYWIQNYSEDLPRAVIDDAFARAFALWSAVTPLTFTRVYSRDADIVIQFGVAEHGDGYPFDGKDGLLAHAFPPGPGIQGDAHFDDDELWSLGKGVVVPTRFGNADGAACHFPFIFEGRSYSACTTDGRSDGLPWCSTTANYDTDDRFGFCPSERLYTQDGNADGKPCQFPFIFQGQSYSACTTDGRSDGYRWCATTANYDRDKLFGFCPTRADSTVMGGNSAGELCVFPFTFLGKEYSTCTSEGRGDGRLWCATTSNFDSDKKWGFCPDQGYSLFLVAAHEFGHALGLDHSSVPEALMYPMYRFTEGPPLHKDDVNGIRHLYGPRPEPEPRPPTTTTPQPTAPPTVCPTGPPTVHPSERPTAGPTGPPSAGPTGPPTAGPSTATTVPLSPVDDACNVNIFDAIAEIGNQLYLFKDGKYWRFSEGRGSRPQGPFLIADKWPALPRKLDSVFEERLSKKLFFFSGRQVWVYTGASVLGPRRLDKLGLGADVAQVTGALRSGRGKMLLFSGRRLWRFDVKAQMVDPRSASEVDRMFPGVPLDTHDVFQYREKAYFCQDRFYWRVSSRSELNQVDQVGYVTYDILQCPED
T1 sequence (P22894 101-467): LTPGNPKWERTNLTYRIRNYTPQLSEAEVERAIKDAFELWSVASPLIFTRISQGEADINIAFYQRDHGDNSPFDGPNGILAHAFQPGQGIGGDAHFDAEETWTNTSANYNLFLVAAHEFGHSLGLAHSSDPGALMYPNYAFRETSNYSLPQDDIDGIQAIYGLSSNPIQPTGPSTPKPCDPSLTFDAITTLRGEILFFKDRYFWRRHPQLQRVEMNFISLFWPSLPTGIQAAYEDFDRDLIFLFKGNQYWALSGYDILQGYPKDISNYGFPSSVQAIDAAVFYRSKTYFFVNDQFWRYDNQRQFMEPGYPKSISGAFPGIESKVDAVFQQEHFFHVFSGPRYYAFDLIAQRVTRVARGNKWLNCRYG

Regarding `COc1ccc(-c2ccc(S(=O)(=O)N(OCCOCCN3CCNCC3)[C@H](CCNC(=O)OCc3ccccc3)C(=O)NO)cc2)cc1` [1j], the IC50 against MMP-8 was 0.0032 ± 0.0002 µM; against MMP-9, 0.0017 ± 0.00014 µM; on MMP-3, 0.039 ± 0.0033 µM; against MMP-16 catalytic domain, 0.01 ± 0.001 µM; against MMP-12 it was 0.0004 ± 5e-05 µM.
Consider `CCC(=O)N1CCN(CCOCCON([C@H](CCNC(=O)OCc2ccccc2)C(=O)NO)S(=O)(=O)c2ccc(-c3ccc(OC)cc3)cc2)CC1` [1k], for which the IC50 came out at 0.0244 ± 0.0025 µM against MMP-13; 0.187 ± 0.011 µM at MMP-9; 0.0479 ± 0.0049 µM against MMP-2 [1]; 1.99 ± 0.09 µM on MMP-3; 1.7 ± 0.305 µM at MMP-14 catalytic domain; 1.26 ± 0.059 µM against MMP-16 catalytic domain. In addition, the IC50 on MMP-12 was determined as 0.022 ± 0.004 µM.
In the case of `CC[N+]1=C(/C=C/C=C/C=C2/N(CCCCCC(=O)NCC[C@H](C(=O)NO)N(OC(C)C)S(=O)(=O)c3ccc(-c4ccc(OC)cc4)cc3)c3ccc4c(S(=O)(=O)O)cc(S(=O)(=O)O)cc4c3C2(C)C)C(C)(C)c2c1ccc1c(S(=O)(=O)[O-])cc(S(=O)(=O)O)cc21` [Compound 5], the half-maximal inhibitory concentration (IC50) was 0.082 ± 0.013 µM on MMP-13 and 0.056 ± 0.008 µM at MMP-2 [1].
With `CC[N+]1=C(/C=C/C=C/C=C2\N(CCCCCC(=O)N3CCN(CCOCCON([C@H](CCNC(=O)OCc4ccccc4)C(=O)O)S(=O)(=O)c4ccc(-c5ccc(OC)cc5)cc4)CC3)c3ccc4c(S(=O)(=O)[O-])cc(S(=O)(=O)O)cc4c3C2(C)C)C(C)(C)c2c1ccc1c(S(=O)(=O)O)cc(S(=O)(=O)O)cc21` [Compound 6a], the half-inhibitory concentration (IC50) against MMP-13 is 0.05 ± 0.0043 µM; at MMP-2 [1] it was 0.0735 ± 0.0057 µM.
For the compound `CC[N+]1=C(/C=C/C=C/C=C2/N(CCCCCC(=O)N3CCN(CCOCCON([C@H](CCNC(=O)OCc4ccccc4)C(=O)NO)S(=O)(=O)c4ccc(-c5ccc(OC)cc5)cc4)CC3)c3ccc4c(S(=O)(=O)O)cc(S(=O)(=O)O)cc4c3C2(C)C)C(C)(C)c2c1ccc1c(S(=O)(=O)[O-])cc(S(=O)(=O)O)cc21` [Compound 6b], the IC50 was 0.0065 ± 0.0006 µM against MMP-8; 0.00017 ± 2e-05 µM against MMP-13; 0.0033 ± 0.0001 µM at MMP-9; 0.0006 ± 6e-05 µM at MMP-2 [1]; 0.053 ± 0.0045 µM on MMP-3; 0.067 ± 0.0034 µM against MMP-14 catalytic domain. Also, the half-inhibitory concentration (IC50) on MMP-16 catalytic domain stood at 0.03 ± 0.0023 µM; against MMP-12, 0.00067 ± 6e-05 µM.
For the compound `CC(C)ON(C(CCNC(=O)OCc1ccccc1)C(=O)NO)S(=O)(=O)c1ccc(-c2ccccc2)cc1` (centres unmarked) [compound (5b)], the IC50 at MMP-14 is 0.0077 µM; at MMP-2 [2], 0.00041 µM.
